Assay results taken from paper PMC9136610 (Acta Pharmaceutica Sinica. B, 2022).

What was measured:
[1] = for AUC in tumor tissues, fold higher than in the normal fatpad: i.v. injection
plasma protein = settings: cited from earlier work; for Protein binding: ref Drugbank database (go.drugbank.com)
in vivo = settings: female, MMTV-PyMT (FVB/NJ background), mouse; for Kp: AUCtissue/AUCplasma
albumin = settings: cited from earlier work
[2] = ref Drugbank database (go.drugbank.com); cited from earlier work

CC/C(=C(\c1ccccc1)c1ccc(OCCN(C)C)cc1)c1ccccc1 [Tamoxifen]
AUCtumor (oral 5 mg/kg, tumor): 3621.3 | exposure difference in the fat, intestine and skin, tamoxifen vs toremifene ([1]; i.v. 2.5 mg/kg, AUC ratio): 2 fold | Protein binding (plasma protein): 98% | AUC (in vivo; po, 5 mg/kg): 102 ng·h/mL | bioavailability (in vivo; po, 5 mg/kg): 39.4%

COc1cccc2c1C(=O)c1c(O)c3c(c(O)c1C2=O)C[C@@](O)(C(=O)CO)C[C@@H]3O[C@H]1C[C@H](N)[C@H](O)[C@H](C)O1 [doxorubicin]
binding affinity to albumin (albumin): 7500 mol/L

Oc1ccc2c(c1)CC[C@H](c1ccccc1)[C@@H]2c1ccc(OCCN2CCCC2)cc1 [Lasofoxifene, lasofoxifene]
AUCtumor (oral 5 mg/kg, tumor): 996 | LogP [2]: 6.36 | LogS [2]: −6 | pKa [2]: 8.98 | Protein binding (plasma protein): 99% | bioavailability (in vivo): 26.9% | AUC (in vivo; po, 5 mg/kg): 75.4 ng·h/mL | Kp (in vivo; po, Kpbone, bone): 3.5 | Kp (in vivo; po, Kpfatpad, fatpad): 5.7 | Kp (in vivo; po, Kptumor, tumor): 13.2

CN(C)CCOc1ccc(/C(=C(/CCCl)c2ccccc2)c2ccccc2)cc1 [Toremifene, toremifene]
AUCtumor (oral 5 mg/kg, tumor): 1393 | tumor drug concentration, fold higher than raloxifene (oral 5 mg/kg, tumor, vs raloxifene): 1.5 fold | drug exposure in the lung, fold increase to tamoxifen (20 mg QD) (toremifene 60 mg QD (3-fold AUC) vs tamoxifen 20 mg QD): 2 fold | LogP [2]: 5.65 | LogS [2]: −6 | pKa [2]: 8.76 | Protein binding (plasma protein): 92% | AUC (in vivo; po, 5 mg/kg): 64.9 ng·h/mL | bioavailability (in vivo; po, 5 mg/kg): 18.5% | Kp (in vivo; po, Kpbone, bone): 5.1 | Kp (in vivo; po, Kpfatpad, fatpad): 20.9 | Kp (in vivo; po, Kptumor, tumor): 21.5

O=C(c1ccc(OCCN2CCCCC2)cc1)c1c(-c2ccc(O)cc2)sc2cc(O)ccc12 [Raloxifene, raloxifene]
AUCtumor (oral 5 mg/kg, tumor): 929.4 | AUC (in vivo; po, 5 mg/kg): 114 ng·h/mL

CC/C(=C(\c1ccc(O)cc1)c1ccc(OCCN(C)C)cc1)c1ccccc1 [Afimoxifene, afimoxifene]
AUCtumor (oral 5 mg/kg, tumor): 2886.5 | tissue selectivity compared to tamoxifen and toremifene, in words ([1]; i.v. 2.5 mg/kg): higher lung but lower pancreas selectivity | exposure difference in the kidney, afimoxifene vs droloxifene ([1]; i.v. 2.5 mg/kg, AUC ratio): 4.8 fold | exposure difference in the liver, afimoxifene vs droloxifene ([1]; i.v. 2.5 mg/kg, AUC ratio): 6.8 fold | AUC in tumor tissues, fold higher than in the normal fatpad [1]: 2.2 fold | LogP [2]: 5.44 | LogS [2]: −5.1 | Protein binding (plasma protein): 99% | AUC (in vivo; po, 5 mg/kg): 114 ng·h/mL | bioavailability (in vivo; po, 5 mg/kg): 32.4% | Kp (in vivo; po, Kpbone, bone): 5 | Kp (in vivo; po, Kpfatpad, fatpad): 10.9 | Kp (in vivo; po, Kptumor, tumor): 25.3

Cc1cc(-c2ccc(/N=N/c3ccc4c(S(=O)(=O)O)cc(S(=O)(=O)O)c(N)c4c3O)c(C)c2)ccc1/N=N/c1ccc2c(S(=O)(=O)O)cc(S(=O)(=O)O)c(N)c2c1O [Evan blue]
plasma protein binding level (plasma protein): 68%

CC/C(=C(/c1ccc(OCCN(C)C)cc1)c1cccc(O)c1)c1ccccc1 [Droloxifene]
AUCtumor (oral 5 mg/kg, tumor): 3238.8 | tissue selectivity compared to tamoxifen and toremifene, in words ([1]; i.v. 2.5 mg/kg): higher lung but lower pancreas selectivity | AUC in tumor tissues, fold higher than in the normal fatpad [1]: 3.1 fold | LogP [2]: 5.43 | LogS [2]: −5.1 | pKa [2]: 8.49 | AUC (in vivo; po, 5 mg/kg): 127 ng·h/mL | bioavailability (in vivo; po, 5 mg/kg): 45.3% | Kp (in vivo; po, Kpbone, bone): 7.7 | Kp (in vivo; po, Kpfatpad, fatpad): 9.5 | Kp (in vivo; po, Kptumor, tumor): 25.6

COc1ccc2c(c1)CCC(c1ccccc1)=C2c1ccc(OCCN2CCCC2)cc1 [Nafoxidine, nafoxidine]
AUCtumor (oral 5 mg/kg, tumor): 6118.7 | oral bioavailability, fold higher than lasofoxifene (vs lasofoxifene): 3 fold | tissue selectivity compared to lasofoxifene, in words ([1]; after i.v and p.o. administration): higher selectivity in stomach, liver, fat, fatpad, spleen, kidney, but lower selectivity in heart, tumor and pancreas | exposure in the fat, fold higher than lasofoxifene ([1]; i.v. 2.5 mg/kg): 8 fold | exposure in the spleen, fold higher than lasofoxifene ([1]; i.v. 2.5 mg/kg): 6 fold | LogP [2]: 6.36 | LogS [2]: −5.91 | pKa [2]: 8.95 | bioavailability (in vivo): 83.4% | AUC (in vivo; po, 5 mg/kg): 969 ng·h/mL | Kp (in vivo; po, Kpbone, bone): 1.4 | Kp (in vivo; po, Kpfatpad, fatpad): 4.5 | Kp (in vivo; po, Kptumor, tumor): 6.3
